# Assay results from patent publication US8822754B2, “Ecdysone receptor-based inducible gene expression system” (Intrexon Corporation, priority 2000, dated 2014).
# Key:
# [1] = system: CfEcR; assay: Comparison of switches in the mammalian cell lines tested (Tables 1-4); type: cell-based, Choristoneura fumiferana; conditions: see Tables 1-4
# Protocol: Several commercially available lipofactors as well as electroporation methods were evaluated and the best conditions for transfection of each cell line were developed. CHO, NIH3T3, 293 and CV1 cells were grown to 60% confluency. DNAs corresponding, to the various switch constructs outlined in Examples 1.1 through 1.10 were transfected into CHO cells, NIH3T3 cells, 293 cells, or CV1 cells as follows.
# (§1) Cells were harvested 24-48 hr after adding ligands. […] Twenty μl of lysate was assayed.
# [2] = system: GAL4CfEcRVP16; assay: Transactivation of reporter genes through switch 1.6 in CV1 cells; type: cell-based, Choristoneura fumiferana; conditions: switch 1.6 GAL4CfEcRVP16, pGAL4RELuc
# Protocol: This construct was prepared so that both the GAL4 DNABD and the VP16AD were placed on the same molecule. GAL4DNABD (SEQ ID NO: 41) and VP16AD (SEQ ID NO: 45) were fused to CfEcRDEF (SEQ ID NO: 3) at N- and C-termini respectively.
# (§2) The same procedures described for NIH3T3 cells were followed for CV1 cells
# as §1
# [3] = system: GAL4EcR + VP16RXR; assay: Transactivation of reporter genes through switch 1.1 in 3T3 cells
# Excerpt: In various cellular backgrounds, including mammalian cells, insect ecdysone receptor (EcR) heterodimerizes with retinoid X receptor (RXR) and, upon binding of ligand, transactivates genes under the control of ecdysone response elements. Applicants constructed several EcR-based gene expression cassettes based on the spruce budworm Choristoneura fumiferana EcR (“CfEcR”; full length polynucleotide and amino acid sequences are set forth in SEQ ID NO: 49 and SEQ ID NO: 50, respectively), C. fumiferana ultraspiracle (“CfUSP”; full length polynucleotide and amino acid sequences are set forth in SEQ ID NO: 51 and SEQ ID NO: 52, respectively), and mouse Mus musculus RXRα (MmRXRα; full length polynucleotide and amino acid sequences are set forth in SEQ ID NO: 53 and SEQ ID NO: 54, respectively). The prepared receptor constructs comprise a ligand binding domain of EcR and of RXR or of USP; a DNA binding domain of GAL4 or of EcR; and an activation domain of VP16. The reporter constructs include a reporter gene, luciferase or LacZ, operably linked to a synthetic promoter construct that comprises either GAL4 or EcR/USP binding sites (response elements). Various combinations of these receptor and reporter constructs were cotransfected into CHO, NIH3T3, CV1 and 293 cells. […] Reporter gene expression activities were assayed at 24 hr or 48 hr after ligand addition.
# The same procedures described for CHO cells were followed for 3T3 cells as well with two modifications. The cells were plated when they reached 50% confluency. 125,000 or 50,000 or 25,000 cells were plated per well of 6- or 12- or 24-well plates respectively. The GAl4EcR/VP16RXR and reporter vector DNAs were transfected into NIH3T3 cells, the transfected cells were grown in medium containing PonA, MurA, N-(2-ethyl-3-methoxybenzoyl)-N′-(3,5-dimethylbenzoyl)-N′-t-butylhydrazine, or N-(3,4-(1,2-ethylenedioxy)-2-methylbenzoyl)-N′-(3,5-dimethylbenzoyl)-N′-tert-butylhydrazine for 48 hr. The ligand treatments were performed as described in the CHO cell section above.
# Cells were harvested 24-48 hr after adding ligands. 125, 250, or 500 μl of passive lysis buffer (part of Dual-luciferase™ reporter assay system from Promega Corporation) were added to each well of 24- or 12- or […] respectively. The plates were placed on a rotary shaker for 15 min. Twenty μl of lysate was assayed. Luciferase activity was measured using Dual-luciferase™ reporter assay system from Promega Corporation following the manufacturer's instructions. β-Galactosidase was measured using Galacto-Star™ assay kit from TROPIX following the manufacturer's instructions. All luciferase and β-galactosidase activities were normalized using Renilla luciferase as a standard. Fold activities were calculated by dividing normalized relative light units (“RLU”) in ligand treated cells with normalized RLU in DMSO treated cells (untreated control).
# [4] = system: VP16CfEcR; assay: Transactivation of reporter genes through switch 1.7 in CV1 cells; type: cell-based, Choristoneura fumiferana; conditions: switch 1.7 VP16CfEcR, pEcRELuc
# Protocol: Six ecdysone response elements (“EcRE”; SEQ ID NO: 59) from the hsp27 gene were placed upstream of the promoter and a luciferase gene (SEQ ID NO: 57). This switch most probably uses endogenous RXR.
# as §2, §1
# [5] = biological target: T1, GAL4RXR + VP16DmEcR (Drosophila melanogaster, UniProt P34021); assay: Transactivation of reporter genes through switch 1.4 in 293 cells; type: cell-based; design: expressed in transfected cells; host or cells: 293 cells (transient co-transfection); conditions: switch 1.4 GAL4RXR + VP16DmEcR, pGAL4RELuc
# T1 sequence (P34021 254-878): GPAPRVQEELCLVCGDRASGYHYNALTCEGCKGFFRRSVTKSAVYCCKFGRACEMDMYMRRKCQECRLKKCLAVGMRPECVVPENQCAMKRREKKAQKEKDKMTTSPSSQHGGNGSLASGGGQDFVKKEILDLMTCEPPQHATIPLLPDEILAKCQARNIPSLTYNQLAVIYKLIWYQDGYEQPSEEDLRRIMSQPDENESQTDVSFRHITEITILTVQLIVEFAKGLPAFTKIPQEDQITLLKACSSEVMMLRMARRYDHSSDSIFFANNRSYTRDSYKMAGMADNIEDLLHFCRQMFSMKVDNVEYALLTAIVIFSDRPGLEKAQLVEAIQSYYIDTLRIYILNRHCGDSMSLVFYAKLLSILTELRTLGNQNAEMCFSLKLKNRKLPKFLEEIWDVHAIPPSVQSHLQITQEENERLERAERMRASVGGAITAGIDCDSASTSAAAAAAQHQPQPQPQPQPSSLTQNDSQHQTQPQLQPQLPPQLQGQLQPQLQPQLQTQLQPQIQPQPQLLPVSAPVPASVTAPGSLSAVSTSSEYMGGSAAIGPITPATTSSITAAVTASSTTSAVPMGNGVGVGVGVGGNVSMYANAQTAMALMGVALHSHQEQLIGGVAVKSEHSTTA
# T1 sequence (P28700 206-467 partner limits assumed): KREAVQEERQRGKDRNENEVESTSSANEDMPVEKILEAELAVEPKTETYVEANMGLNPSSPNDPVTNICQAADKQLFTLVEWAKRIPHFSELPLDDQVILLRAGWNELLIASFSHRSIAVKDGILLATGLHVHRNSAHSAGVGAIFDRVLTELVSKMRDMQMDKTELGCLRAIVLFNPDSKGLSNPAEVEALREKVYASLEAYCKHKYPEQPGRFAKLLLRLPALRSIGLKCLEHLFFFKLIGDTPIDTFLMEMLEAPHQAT
# Protocol: This construct was prepared in the same way as switch 1.3 except CfEcRCDEF was replaced with DmEcRCDEF (SEQ ID NO: 6).
# The same procedures described for CHO were followed for 293 cells except that the cells were plated in biocoated plates to avoid clumping.
# as §1
structure (smiles),measurement,setting,value
"CCc1c(OC)cccc1C(=O)NN(C(=O)c1cc(C)cc(C)c1)C(C)(C)C [N-(2-ethyl-3-methoxybenzoyl)-N′-(3,5-dimethylbenzoyl)-N′-tert-butylhydrazine]",potency as activators of CfEcR as compared to DmEcR,[1],more potent activators of CfEcR
same,"Mean Fold Activation Through N-(2-ethyl-3-methoxybenzoyl)-N′-(3,5-dimethylbenzoyl)-N′-t-butylhydrazine",[2],6 fold
same,Mean Fold Induction at 1.0 μM Concentration,"[3]; GAL4CfEcRDEF/VP16MmRXRDEF (switch 1.1), 1.0 μM ligand, 48 hr",116 fold
same,"Mean Fold Activation Through N-(2-ethyl-3-methoxybenzoyl)-N′-(3,5-dimethylbenzoyl)-N′-t-butylhydrazine","[3]; switch 1.1 GAL4EcR + VP16RXR, pGAL4RELuc",1118 fold
same,"Mean Fold Activation Through N-(2-ethyl-3-methoxybenzoyl)-N′-(3,5-dimethylbenzoyl)-N′-t-butylhydrazine",[4],1 fold
same,"Mean Fold Activation Through N-(2-ethyl-3-methoxybenzoyl)-N′-(3,5-dimethylbenzoyl)-N′-t-butylhydrazine",[5],3 fold
